Columns and labels:
[1] = test system: DOHH2 cells; experiment: Cell proliferation assay (MTS), DOHH2 cells, 120 h; type: cell-based; conditions: Homo sapiens, DOHH-2, 120 h
Procedure, shortened: (§1)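 RS4;11 and DOHH2 cells at 5000 cells/well in RPMI-1640 with 10% FBS were treated with compound at 1.5–10000 nM final, nine points, at 37 °C, 5% CO2. Exposure was 72 h for RS4;11 and 120 h for DOHH2. MTS was added for 2 h, absorbance read at 490/650 nm, and IC50 calculated.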

[2] = test system: RS4;11 cells; experiment: Cell proliferation assay (MTS), RS4;11 cells, 72 h; type: cell-based; conditions: Homo sapiens, RS4-11, 72 h
Procedure, shortened: as §1

Structure (SMILES) | IC50 [1] [nM] | IC50 [2] [nM]
CC1(C)CCC(CN2CCN(c3ccc(C(=O)NS(=O)(=O)c4cc5c(c([N+](=O)[O-])c4)N[C@@H](CN=S4(=O)CCOCC4)CO5)c(Oc4cnc5[nH]ccc5c4)c3)CC2)=C(c2ccc(Cl)cc2)C1 [Example 2-77, (S)-2-((1H-pyrrolo[2,3-b]pyridin-5-yl)oxy)-4-(4-((4′-chloro-5,5-dimethyl-3,4,5,6-tetra-hydro-[1,1′-biphenyl]-2-yl)methyl)piperazin-1-yl)-N-((5-nitro-3-(((4-oxido-1,4λ^6-oxa-thian-4-ylidene)amino)methyl)-3,4-dihydro-2H-benzo[b][1,4]oxazin-7-yl)sulfonyl)ben-zamide] | 602 | 50
CC1(C)CCC(CN2CCN(c3ccc(C(=O)NS(=O)(=O)c4cc5c(c([N+](=O)[O-])c4)N[C@@H](CCN=S4(=O)CCOCC4)CO5)c(Oc4cnc5[nH]ccc5c4)c3)CC2)=C(c2ccc(Cl)cc2)C1 [Example 2-78, (S)-2-((1H-pyrrolo[2,3-b]pyridin-5-yl)oxy)-4-(4-((4′-chloro-5,5-dimethyl-3,4,5,6-tetra-hydro-[1,1′-biphenyl]-2-yl)methyl)piperazin-1-yl)-N-((5-nitro-3-(2-((4-oxido-1,4λ^6-ox-athian-4-ylidene)amino)ethyl)-3,4-dihydro-2H-benzo[b][1,4]oxazin-7-yl)sulfonyl)ben-zamide] | 15 | 6
C[C@H]1CN(C[C@@H]2COc3cc(S(=O)(=O)NC(=O)c4ccc(N5CCN(CC6=C(c7ccc(Cl)cc7)CC(C)(C)CC6)CC5)cc4Oc4cnc5[nH]ccc5c4)cc([N+](=O)[O-])c3N2)CCO1 [Example 2-79, 2-((1H-pyrrolo[2,3-b]pyridin-5-yl)oxy)-4-(4-((4′-chloro-5,5-dimethyl-3,4,5,6-tetrahydro-[1,1′-biphenyl]-2-yl)methyl)piperazin-1-yl)-N-(((R)-3-(((S)-2-methylmorpholino)methyl)-5-nitro-3,4-dihydro-2H-benzo[b][1,4]oxazin-7-yl)sulfonyl)benzamide] | 55 | 7
C[C@H]1COCCN1C[C@@H]1COc2cc(S(=O)(=O)NC(=O)c3ccc(N4CCN(CC5=C(c6ccc(Cl)cc6)CC(C)(C)CC5)CC4)cc3Oc3cnc4[nH]ccc4c3)cc([N+](=O)[O-])c2N1 [Example 2-80, 2-((1H-pyrrolo[2,3-b]pyridin-5-yl)oxy)-4-(4-((4′-chloro-5,5-dimethyl-3,4,5,6-tetrahydro-[1,1′-biphenyl]-2-yl)methyl)piperazin-1-yl)-N-(((R)-3-(((S)-3-methylmorpholino)meth-yl)-5-nitro-3,4-dihydro-2H-benzo[b][1,4]oxazin-7-yl)sulfonyl)benzamide] | 49 | 7
C[C@@H]1COCCN1C[C@@H]1COc2cc(S(=O)(=O)NC(=O)c3ccc(N4CCN(CC5=C(c6ccc(Cl)cc6)CC(C)(C)CC5)CC4)cc3Oc3cnc4[nH]ccc4c3)cc([N+](=O)[O-])c2N1 [Example 2-81, 2-((1H-pyrrolo[2,3-b]pyridin-5-yl)oxy)-4-(4-((4′-chloro-5,5-dimethyl-3,4,5,6-tetra-hydro-[1,1′-biphenyl]-2-yl)methyl)piperazin-1-yl)-N-(((R)-3-(((R)-3-methylmorpholino)meth-yl)-5-nitro-3,4-dihydro-2H-benzo[b][1,4]oxazin-7-yl)sulfonyl)benzamide] | 14 | 3
CC1(C)CCC(CN2CCN(c3ccc(C(=O)NS(=O)(=O)c4cc5c(c([N+](=O)[O-])c4)N[C@H](CN4C[C@@H]6C[C@H]4CO6)CO5)c(Oc4cnc5[nH]ccc5c4)c3)CC2)=C(c2ccc(Cl)cc2)C1 [Example 2-82, 2-((1H-pyrrolo[2,3-b]pyridin-5-yl)oxy)-N-(((R)-3-(((1S,4S)-2-oxa-5-azabicyclo[2.2.1]heptan-5-yl)methyl)-5-nitro-3,4-dihydro-2H-benzo[b][1,4]oxazin-7-yl)sulfonyl)-4-(4-((4′-chloro-5,5-dimethyl-3,4,5,6-tetrahydro-[1,1′-biphenyl]-2-yl)methyl)piperazin-1-yl) benzamide] | 9 | 1
CC1(C)CCC(CN2CCN(c3ccc(C(=O)NS(=O)(=O)c4cc5c(c([N+](=O)[O-])c4)N[C@H](CN4C[C@H]6C[C@@H]4CO6)CO5)c(Oc4cnc5[nH]ccc5c4)c3)CC2)=C(c2ccc(Cl)cc2)C1 [Example 2-83, 2-((1H-pyrrolo[2,3-b]pyridin-5-yl)oxy)-N-(((R)-3-(((1R,4R)-2-oxa-5-azabicyclo[2.2.1]heptan-5-yl)methyl)-5-nitro-3,4-dihydro-2H-benzo[b][1,4]oxazin-7-yl)sulfonyl)-4-(4-((4′-chloro-5,5-dimethyl-3,4,5,6-tetrahydro-[1,1′-biphenyl]-2-yl)methyl)piperazin-1-yl) benzamide] | 13 | 1
CC1(C)CCC(CN2CCN(c3ccc(C(=O)NS(=O)(=O)c4cc5c(c([N+](=O)[O-])c4)N[C@H](CN4CCCCC4)CO5)c(Oc4cnc5[nH]ccc5c4)c3)CC2)=C(c2ccc(Cl)cc2)C1 [Example 2-84, (R)-2-((1H-pyrrolo[2,3-b]pyridin-5-yl)oxy)-4-(4-((4′-chloro-5,5-dimethyl-3,4,5,6-tetra-hydro-[1,1′-biphenyl]-2-yl)methyl)piperazin-1-yl)-N-((5-nitro-3-(piperidin-1-ylmethyl)-3,4-dihydro-2H-benzo[b][1,4]oxazin-7-yl)sulfonyl)benzamide] | 82 | 26
CC1(C)CCC(CN2CCN(c3ccc(C(=O)NS(=O)(=O)c4cc5c(c([N+](=O)[O-])c4)N[C@@H](CN4C[C@@H]6C[C@H]4CO6)CO5)c(Oc4cnc5[nH]ccc5c4)c3)CC2)=C(c2ccc(Cl)cc2)C1 [Example 2-87, 2-((1H-pyrrolo[2,3-b]pyridin-5-yl)oxy)-N-(((S)-3-(((1S,4S)-2-oxa-5-azabicyclo[2.2.1]heptan-5-yl)methyl)-5-nitro-3,4-dihydro-2H-benzo[b][1,4]oxazin-7-yl)sulfonyl)-4-(4-((4′-chloro-5,5-dimethyl-3,4,5,6-tetrahydro-[1,1′-biphenyl]-2-yl)methyl)piperazin-1-yl) benzamide] | 26 | 7
CC1(C)CCC(CN2CCN(c3ccc(C(=O)NS(=O)(=O)c4cc5c(c([N+](=O)[O-])c4)N[C@@H](CN4C[C@H]6C[C@@H]4CO6)CO5)c(Oc4cnc5[nH]ccc5c4)c3)CC2)=C(c2ccc(Cl)cc2)C1 [Example 2-88, 2-((1H-pyrrolo[2,3-b]pyridin-5-yl)oxy)-N-(((S)-3-(((1R,4R)-2-oxa-5-azabicyclo[2.2.1]heptan-5-yl)methyl)-5-nitro-3,4-dihydro-2H-benzo[b][1,4]oxazin-7-yl)sulfonyl)-4-(4-((4′-chloro-5,5-dimethyl-3,4,5,6-tetrahydro-[1,1′-biphenyl]-2-yl)methyl)piperazin-1-yl) benzamide] | 14 | 2
CC1(C)CCC(CN2CCN(c3ccc(C(=O)NS(=O)(=O)c4cc5c(c([N+](=O)[O-])c4)N[C@@H](CN4CCCCC4)CO5)c(Oc4cnc5[nH]ccc5c4)c3)CC2)=C(c2ccc(Cl)cc2)C1 [Example 2-89, (S)-2-((1H-pyrrolo[2,3-b]pyridin-5-yl)oxy)-4-(4-((4′-chloro-5,5-dimethyl-3,4,5,6-tetra-hydro-[1,1′-biphenyl]-2-yl)methyl)piperazin-1-yl)-N-((5-nitro-3-(piperidin-1-ylmethyl)-3,4-dihydro-2H-benzo[b][1,4]oxazin-7-yl)sulfonyl)benzamide] | 55 | 50
CC1(C)CCC(CN2CCN(c3ccc(C(=O)NS(=O)(=O)c4cc5c(c([N+](=O)[O-])c4)N[C@H](CN4CCN(S(C)(=O)=O)CC4)CO5)c(Oc4cnc5[nH]ccc5c4)c3)CC2)=C(c2ccc(Cl)cc2)C1 [Example 2-90, (R)-2-((1H-pyrrolo[2,3-b]pyridin-5-yl)oxy)-4-(4-((4′-chloro-5,5-dimethyl-3,4,5,6-tetra-hydro-[1,1′-biphenyl]-2-yl)methyl)piperazin-1-yl)-N-((3-((4-(methylsulfonyl)piperazin-1-yl)methyl)-5-nitro-3,4-dihdyro-2H-ben-zo[b][1,4]oxazin-7-yl)sulfonyl)benzamide] | 22 | 8
CC(=O)N1CCN(C[C@@H]2COc3cc(S(=O)(=O)NC(=O)c4ccc(N5CCN(CC6=C(c7ccc(Cl)cc7)CC(C)(C)CC6)CC5)cc4Oc4cnc5[nH]ccc5c4)cc([N+](=O)[O-])c3N2)CC1 [Example 2-91, (R)-2-((1H-pyrrolo[2,3-b]pyridin-5-yl)oxy)-N-((3-((4-acetylpiperazin-1-yl)methyl)-5-nitro-3,4-dihydro-2H-benzo[b][1,4]oxazin-7-yl)sulfonyl)-4-(4-((4′-chloro-5,5-dimethyl-3,4,5,6-tetrahydro-[1,1′-biphenyl]-2-yl)meth-yl)piperazin-1-yl)benzamide] | 49 | 5
CCC(=O)N1CCN(C[C@@H]2COc3cc(S(=O)(=O)NC(=O)c4ccc(N5CCN(CC6=C(c7ccc(Cl)cc7)CC(C)(C)CC6)CC5)cc4Oc4cnc5[nH]ccc5c4)cc([N+](=O)[O-])c3N2)CC1 [Example 2-92, (R)-2-((1H-pyrrolo[2,3-b]pyridin-5-yl)oxy)-4-(4-((4′-chloro-5,5-dimethyl-3,4,5,6-tetra-hydro-[1,1′-biphenyl]-2-yl)methyl)piperazin-1-yl)-N-((5-nitro-3-((4-propionylpiperazin-1-yl)methyl)-3,4-dihydro-2H-benzo[b] [1,4]oxazin-7-yl)sulfonyl)benzamide] | 79 | 5
COC(=O)N1CCN(C[C@@H]2COc3cc(S(=O)(=O)NC(=O)c4ccc(N5CCN(CC6=C(c7ccc(Cl)cc7)CC(C)(C)CC6)CC5)cc4Oc4cnc5[nH]ccc5c4)cc([N+](=O)[O-])c3N2)CC1 [Example 2-93, methyl (R)-4-((7-(N-(2-((1H-pyrrolo[2,3-b]pyridin-5-yl)oxy)-4-(4-((4′-chloro-5,5-dimethyl-3,4,5,6-tetrahydro-[1,1′-biphenyl]-2-yl)methyl)piperazin-1-yl)benzoyl)sulfamoyl)-5-nitro-3,4-dihydro-2H-benzo[b][1,4]oxazin-3-yl)methyl)piperazine-1-carboxylate] | 16 | 40
